These results are taken from patent US7790706B2, “Treatment of inflammation with 5α reduced metabolites” (The University of Edinburgh, priority 2002, dated 2010).

SMILES strings stand for the structures. Entries after “also recorded” stand apart in the source; their conditions may differ.

Data set [1] concerns glucocorticoid receptors (GR) in hepatocytes. Description: Binding to glucocorticoid receptor in hepatocytes (3H-dexamethasone displacement). The settings on record: 24° C., 1 h, compared with corticosterone (B). As for the experimental part: Hepatocytes were incubated at 24° C. for 1 h in the presence of ^3H-dexamethasone and increasing concentrations of dexamethasone in the concentration range 0.632 nM to 200 μM. Cells were harvested and the radioactivity bound was determined by β-scintillation counting. *=p<0.001 versus B. The results are shown in FIG. 1.

Data set [2] concerns the target T1, glucocorticoid receptor (GR) (Homo sapiens, UniProt P04150).
T1 construct: expressed in transfected cells; host or cells: HeLa cells
T1 sequence (P04150 1-777): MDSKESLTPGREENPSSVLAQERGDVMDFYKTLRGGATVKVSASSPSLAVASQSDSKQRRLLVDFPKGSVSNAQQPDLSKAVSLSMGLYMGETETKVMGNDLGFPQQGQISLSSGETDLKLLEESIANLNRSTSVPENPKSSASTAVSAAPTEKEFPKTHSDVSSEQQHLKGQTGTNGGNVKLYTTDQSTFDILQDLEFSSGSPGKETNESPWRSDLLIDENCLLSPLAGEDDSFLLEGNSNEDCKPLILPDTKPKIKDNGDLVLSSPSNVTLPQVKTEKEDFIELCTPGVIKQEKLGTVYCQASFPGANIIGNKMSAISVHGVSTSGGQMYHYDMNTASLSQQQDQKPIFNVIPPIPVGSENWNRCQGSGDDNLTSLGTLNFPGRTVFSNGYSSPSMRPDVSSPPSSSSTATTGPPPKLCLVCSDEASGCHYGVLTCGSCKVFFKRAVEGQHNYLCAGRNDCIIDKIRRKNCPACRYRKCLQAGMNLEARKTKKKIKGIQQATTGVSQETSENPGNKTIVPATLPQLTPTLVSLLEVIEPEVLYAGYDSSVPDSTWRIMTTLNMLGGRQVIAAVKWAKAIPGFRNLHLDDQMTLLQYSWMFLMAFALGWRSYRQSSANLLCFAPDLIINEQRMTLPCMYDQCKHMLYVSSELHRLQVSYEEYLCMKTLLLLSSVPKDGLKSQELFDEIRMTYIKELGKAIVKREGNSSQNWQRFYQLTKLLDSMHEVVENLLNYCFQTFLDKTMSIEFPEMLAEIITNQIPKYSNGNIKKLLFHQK
Description: GR activation reporter: Hela cells transfected with GR and MMTV-luciferase. As to conditions: for luciferase induction in response to activation of GR: Hela cells transfected with GR and MMTV-luciferase; for luciferase induction in response to activation of GR / luciferase induction in cells without GR / Induction of luciferase (GR activation), Example 5: 1 micromol/l; for luciferase induction in cells without GR: Hela cells transfected with luciferase but without GR. It is filed as cell-based. As for the experimental part: Comparative potency Fold induction of luciferase activity as a consequence of GR activation in Hela cells transfected with GR and luciferase under the control of a GRE and MMTV promoter (n=3). All steroids at 1 μM. Dex=dexamethasone; B=corticosterone; αDHB=5α-dihydrocorticosterone; αTHB=5α-tetrahydrocorticosterone; βDHB=5β-dihydrocorticosterone; βTHB=5β-tetrahydrocorticosterone. *indicates p<0.05 and ***p<0.001 in comparison with corticosterone. 5α-reduced metabolites of corticosterone activate glucocorticoid receptors with similar potency as corticosterone (B). […] 5β-reduced metabolites have no effect.
Dose response. Fold induction of luciferase activity as a consequence of GR activation in Hela cells transfected with GR and luciferase under the control of a GRE and MMTV promoter (n=3).
Corticosterone (B) and 5α-tetrahydrocorticosterone (5αTHB) or vehicle (LTR) were added to the medium (with final steroid concentrations of 1 micromol/l) of Hela cells transfected with GR and a plasmid expressing luciferase under the control of an MMTV glucocorticoid responsive promoter (grey bars) and in transfected cells with luciferase but without GR (open bars).
HeLa cells were transfected with glucocorticoid receptor (GR) and MMTV-luciferase (LTR) as a glucocorticoid sensitive reporter. Induction of luciferase was measured in response to addition of 5α-tetrahydrocorticosterone (5α-THB) with and without corticosterone (B). Data (mean±SEM, n=6) show responses to individual steroids, then the additive responses predicted (Sum) and observed (Actual).
HeLa cells were transfected with glucocorticoid receptor (GR) and MMTV-luciferase (LTR) as a glucocorticoid sensitive reporter. Induction of luciferase was measured in response to addition of 1 micromol/l concentrations of corticosterone (B), cortisol (F), 5alpha-dihydrocortisol (DHF5a) and 5alpha-tetrahydrocortisol (THF5a).

Data set [3] concerns tyrosine amino transferase (TAT) mRNA in H4iiE cells. Description: Induction of tyrosine amino transferase (TAT) mRNA in H4iiE cells (Northern blot). The class given is cell-based. The settings on record: 1 micromol/l; for Induction of TAT mRNA: Northern blot corrected for U1; for Induction of TAT mRNA in presence of RU486: plus GR antagonist RU486. As for the experimental part: Induction of the glucocorticoid-responsive enzyme tyrosine amino transferase (TAT) mRNA was measured by Northern blot in H4iiE cells incubated in the presence of corticosterone (B, 1 micromol/l) or 5α-tetrahydrocorticosterone (5α-THB, 1 micromol/l) or vehicle.

The test system of the next data set is ACTH levels. Description: ACTH suppression in adrenalectomised rats. It is filed as in vivo, Male lean Zucker rats. The settings on record: 5 mg/kg intraperitoneal, 2 hours after injection, immunoassay. As for the experimental part: Male lean Zucker rats aged ˜9 weeks were adrenalectomised. 3 weeks later, samples were obtained by tail tipping before and for 3 hours after intraperitoneal injection of either vehicle, corticosterone (B, 5 mg/kg body weight) or 5alpha-tetrahydrocorticosterone (THB5a, 5 mg/kg body weight). […] This is consistent with activation of glucocorticoid receptors at sites responsible for feedback suppression of the hypothalamic-pituitary-adrenal axis (principally pituitary, hypothalamus and hippocampus).

A further data set deals with mouse aortic ring. As to the kind of experiment: Angiogenesis bioassay, aortic ring embedded in matrigel. The settings on record: 7 days; for number of new vessels forming (angiogenesis): B 600 nmol/l, 5alpha-THB 1000 nmol/l; for angiogenesis effect in presence of RU486: plus GR antagonist RU486. It is filed as cell-based. Here is the method: In this bioassay, the number of new vessels forming is measured over 7 days in a mouse aortic ring embedded in matrigel.

For the next data set, the target named is T2, glucocorticoid receptors (Rattus norvegicus, UniProt P06536).
T2 sequence (P06536 1-795): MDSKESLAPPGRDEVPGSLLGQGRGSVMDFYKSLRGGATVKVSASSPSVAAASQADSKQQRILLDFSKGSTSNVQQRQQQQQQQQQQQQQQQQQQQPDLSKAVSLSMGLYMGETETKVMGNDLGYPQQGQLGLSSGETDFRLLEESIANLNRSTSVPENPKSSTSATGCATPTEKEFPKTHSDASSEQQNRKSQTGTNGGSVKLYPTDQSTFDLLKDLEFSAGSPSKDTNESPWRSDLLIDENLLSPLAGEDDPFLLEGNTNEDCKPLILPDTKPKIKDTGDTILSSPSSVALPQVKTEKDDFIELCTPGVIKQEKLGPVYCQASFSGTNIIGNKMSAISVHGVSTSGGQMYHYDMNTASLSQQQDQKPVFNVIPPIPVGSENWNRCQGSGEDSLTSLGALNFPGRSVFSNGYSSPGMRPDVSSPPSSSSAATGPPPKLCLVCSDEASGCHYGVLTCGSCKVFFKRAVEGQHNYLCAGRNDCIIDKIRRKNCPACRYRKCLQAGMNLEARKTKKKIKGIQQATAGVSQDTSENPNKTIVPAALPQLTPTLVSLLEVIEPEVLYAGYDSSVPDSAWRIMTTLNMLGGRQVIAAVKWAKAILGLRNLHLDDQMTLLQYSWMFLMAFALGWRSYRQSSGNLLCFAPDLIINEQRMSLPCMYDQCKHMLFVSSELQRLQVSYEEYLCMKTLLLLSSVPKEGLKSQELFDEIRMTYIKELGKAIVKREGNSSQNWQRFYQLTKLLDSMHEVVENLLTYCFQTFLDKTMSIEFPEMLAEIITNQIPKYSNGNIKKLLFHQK
The settings on record: Carlstedt-Duke et al 1977; cited from earlier work.

Data set [4] deals with gluconeogenic enzymes in liver. As to conditions: Golf et al 1984; cited from earlier work.
For data set [5], the system named is neuronal long-term potentiation. As to conditions: Dubrovsky et al 1987; cited from earlier work.
[6] abbreviates: Hela cells transfected with GR and GRE/MMTV-luciferase, n=3.
The mark [7] stands for this setting: HeLa cells, GR and MMTV-luciferase.

Turning to `C[C@]12CC[C@@H](O)C[C@@H]1CC[C@@H]1[C@@H]2[C@@H](O)C[C@]2(C)[C@@H](C(=O)CO)CC[C@@H]12` [5α-tetrahydrocorticosterone], in data set [1], the “binding affinity for glucocorticoid receptors (GR)” value is “equivalent binding affinity”. Further, the “agonist type at GR (observed versus predicted additive luciferase response)” value in data set [2] (HeLa cells, GR and MMTV-luciferase, with and without corticosterone, n=6) was “full rather than partial agonist of GR”. Besides, the “Fold induction of luciferase activity as a consequence of GR activation (comparative potency)” value in data set [2] (Hela cells transfected with GR and GRE/MMTV-luciferase, all steroids at 1 μM, n=3) is on record as “more potent than 5α-dihydrocorticosterone”. In addition, the “Fold induction of luciferase activity as a consequence of GR activation (dose response)” value in data set [2] (setting [6]) was “activate a glucocorticoid receptor-dependent response; also recorded: lesser effect than corticosterone”. In addition, in data set [2], the “luciferase induction in response to activation of GR” value is “activated GR” and the “luciferase induction in cells without GR” value was “abolished in the absence of transfected receptor”. Moreover, in data set [3], the “Induction of TAT mRNA” value was “induced TAT mRNA transcription” and the “Induction of TAT mRNA in presence of RU486” value is given as “blocked”. For the same molecule, the “ACTH levels compared with vehicle” value with ACTH levels is recorded as “significantly suppressed ACTH levels”. In the data set with mouse aortic ring, the “number of new vessels forming (angiogenesis)” value is recorded as “prevents angiogenesis” and the “angiogenesis effect in presence of RU486” value is given as “also blocked by RU486”.

Regarding `C[C@]12C[C@H](O)[C@H]3[C@@H](CCC4=CC(=O)CC[C@@]43C)[C@@H]1CC[C@@H]2C(=O)CO` [corticosterone, reference compound], in data set [2] (setting [7]), the “Induction of luciferase (GR activation), Example 5” value (shortened to “Induction of luciferase … Example 5”) is recorded as “induced significant GR activation”. The “Fold induction of luciferase activity as a consequence of GR activation (dose response)” value in data set [2] (setting [6]) was “activate a glucocorticoid receptor-dependent response”. In addition, in data set [2], the “luciferase induction in response to activation of GR” value is “activated GR” and the “luciferase induction in cells without GR” value is “abolished in the absence of transfected receptor”. Besides, in data set [3], the “Induction of TAT mRNA” value is reported as “induced TAT mRNA transcription” and the “Induction of TAT mRNA in presence of RU486” value is “blocked”. Also, the “ACTH levels compared with vehicle” value in the data set on ACTH levels is on record as “significantly suppressed ACTH levels”. Also, in the data set with mouse aortic ring, the “number of new vessels forming (angiogenesis)” value is listed as “inhibits angiogenesis” and the “angiogenesis effect in presence of RU486” value is on record as “blocked”.

As to `C[C@]12CCC(=O)C=C1CC[C@@H]1[C@@H]2[C@@H](O)C[C@@]2(C)[C@H]1CC[C@]2(O)C(=O)CO` [cortisol, reference compound], in data set [2] (setting [7]), the “Induction of luciferase … Example 5” value was “induced significant GR activation”.

As for `C[C@]12CC[C@@H](O)C[C@@H]1CC[C@@H]1[C@@H]2[C@@H](O)C[C@@]2(C)[C@H]1CC[C@]2(O)C(=O)CO` [5alpha-tetrahydrocortisol], the “Induction of luciferase … Example 5” value in data set [2] (setting [7]) is “induced significant GR activation”.

On to `C[C@]12CCC(=O)C[C@@H]1CC[C@@H]1[C@@H]2[C@@H](O)C[C@@]2(C)[C@H]1CC[C@]2(O)C(=O)CO` [5alpha-dihydrocortisol], for which the “Induction of luciferase … Example 5” value in data set [2] (setting [7]) is listed as “induced significant GR activation”.

For the molecule `C[C@]12CCC(=O)C[C@@H]1CC[C@@H]1[C@@H]2[C@@H](O)C[C@]2(C)[C@@H](C(=O)CO)CC[C@@H]12` [5α-dihydrocorticosterone], in data set [1], the “binding affinity for glucocorticoid receptors (GR)” value was “lower binding affinities”. Besides, on glucocorticoid receptors, the “binding to glucocorticoid receptors, judged by displacement of bound dexamethasone” value is “does not bind to glucocorticoid receptors”. Moreover, in data set [4], the “activity of gluconeogenic enzymes in liver” value is reported as “lowering activity of gluconeogenic enzymes in liver”. Further, the “effect on neuronal long-term potentiation” value in data set [5] was “inhibition of neuronal long-term potentiation”.
